Measured values taken from US5434266A, “Monosaccharide analog-based glycosidase inhibitors” (priority 1993, dated 1995).
Like-named read-outs stand apart in the source and are kept apart here.

Legend:
mannosidases = conditions: cited from earlier work
jackbean α-mannosidase = target: T1, jackbean α-mannosidase (Canavalia ensiformis, UniProt C0HJB3); assay: Glycosidase inhibition / KI determination, jackbean α-mannosidase; type: biochemical
T1 construct: host or cells: jack bean
T1 sequence (C0HJB3 1-981): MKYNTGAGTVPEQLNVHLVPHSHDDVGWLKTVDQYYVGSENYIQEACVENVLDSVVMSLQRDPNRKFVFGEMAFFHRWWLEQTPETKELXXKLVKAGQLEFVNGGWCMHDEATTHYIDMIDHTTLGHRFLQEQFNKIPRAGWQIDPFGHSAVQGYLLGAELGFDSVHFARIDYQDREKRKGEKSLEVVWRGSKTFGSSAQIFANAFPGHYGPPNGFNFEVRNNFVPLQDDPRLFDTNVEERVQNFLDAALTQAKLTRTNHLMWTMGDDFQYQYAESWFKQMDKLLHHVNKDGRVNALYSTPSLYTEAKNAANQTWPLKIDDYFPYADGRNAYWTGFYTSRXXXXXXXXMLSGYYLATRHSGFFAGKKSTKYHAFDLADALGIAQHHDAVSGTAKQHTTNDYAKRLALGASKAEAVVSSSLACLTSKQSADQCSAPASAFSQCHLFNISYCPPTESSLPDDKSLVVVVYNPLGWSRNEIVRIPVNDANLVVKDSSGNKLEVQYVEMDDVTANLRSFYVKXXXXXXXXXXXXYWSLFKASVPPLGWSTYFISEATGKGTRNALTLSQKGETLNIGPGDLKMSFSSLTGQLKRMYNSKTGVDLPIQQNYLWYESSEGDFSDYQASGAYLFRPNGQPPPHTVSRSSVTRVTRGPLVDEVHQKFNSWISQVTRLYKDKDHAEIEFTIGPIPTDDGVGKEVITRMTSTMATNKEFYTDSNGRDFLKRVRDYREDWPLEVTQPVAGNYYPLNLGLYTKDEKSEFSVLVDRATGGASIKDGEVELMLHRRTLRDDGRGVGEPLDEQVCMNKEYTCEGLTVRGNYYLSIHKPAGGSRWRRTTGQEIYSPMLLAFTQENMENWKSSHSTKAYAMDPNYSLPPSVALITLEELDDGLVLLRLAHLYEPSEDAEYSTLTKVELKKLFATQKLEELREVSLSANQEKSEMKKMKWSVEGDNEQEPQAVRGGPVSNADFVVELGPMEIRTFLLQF
Procedure: (§1) pH for Enzyme Assays--Yeast e-glucosidase and green coffee bean α-galactosidase were assayed at pH 6.6. Almond β-glucosidase and jackbean α-mannosidase were assayed at pH 5.0. Bovine liver β-galactosidase was assayed at pH 7.0.
(§2) Working Enzyme Solutions--Typical enzyme concentrations in the assay buffer for inhibitor screening were as follows: yeast α-glucosidase, 10 μL of enzyme suspension in 2.00 mL pH 6.6 phosphate-citrate buffer; almond β-glucosidase, 25 μL of enzyme solution (0.4 mg solid enzyme in 70 μL pH 5.0 NaCl/NaOAc buffer) in 5.00 mL pH 5.0 NaCl/NaOAc buffer; jackbean α-mannosidase, 5-8 μL of enzyme suspension in 2.00 mL NaCl/NaOAc buffer; green coffee bean α galactosidase, 15 μL of enzyme suspension in 1.2 mL NaCl/NaOAc buffer; bovine liver β-galactosidase, 1.7 mg solid enzyme in 850 μL, NaCl/NaOAc buffer.
(§3) An acceptable concentration of enzyme, upon hydrolysis of the corresponding glycoside, should give an absorbance reading between 0.4 and 2.0 at 400 nm. A control assay was first performed to determine whether the enzyme concentration was acceptable. The assays involved addition of working enzyme solution (0.09 mL) and deionized water (0.18 mL) to buffer at the appropriate pH (0.09 mL, phosphate-citrate). The resulting solution was incubated at 37° C. for 5 minutes. Aliquots (0.1 mL) of this preincubation mixture was then added to three separate test tubes. Substrate (the corresponding p-nitrophenyl-D-glycoside, 0.1 mL, 10 mM in appropriate buffer), which had also been incubated at 37° C., was then added to each tube at thirty-second intervals. The hydrolyses were allowed to continue for 0.25 hours and then quenched by addition of glycine buffer (2.5 mL). The absorbance of the resulting solution was measure at 400 nm. Once this control run of the system gave an absorbance within 0.4-2.0, the potential inhibitors were assayed against this working enzyme solution at final inhibitor and substrate concentrations of 1 and 5 mM, respectively. In the inhibitor assays, deionized water was replaced by the inhibitor ([…] solution in deionized water). All inhibitors were tested in triplicate, with a control (by substituting the inhibitors with deionized water) and a standard.
(§4) Five substrate solutions (usually […]) and five inhibitor solutions (usually 0-200 μM) were prepared. To a 3-mL test tube were added buffer at the appropriate pH (0.28 mL, phosphate-citrate), working enzyme solution (0.28 mL) and inhibitor solution (0.56 mL). The solution was incubated at 37° C. for 5 minutes. Aliquots (0.1 mL) of this solution were then pipetted into ten separate test tubes. Substrate solution (0.1 mL) was then added to each tube at thirty-second intervals. Duplicate reactions were terminated by addition of glycine buffer (2.5 mL) at the end of 3, 6, 8, 10, and 12 minutes. The amound of released p-nitrophenolate was measured spectrophotometrically at 400 nm. The process was repeated for all combinations of inhibitor and substrate concentrations.
(§5) The velocities (V) of substrate hydrolysis at every combination of inhibitor [I] and substrate [S] concentrations were determined by plotting the absorbance values with respect to time and t]hen calculating the slopes of the lines. Double reciprocal plots of 1/V versus 1/[S] at different [I] were then generated. The slopes of each of these lines were then plotted against [I] and the data were fitted to a straight line. The [I]-intercept gave the enzyme-inhibitor dissociation constant. KI values were also calculated from Hanes-Woolf plots of [S]/V vs. [S] by replotttng the [S]/V intercepts versus [I] and ascertaining the [I] intercept. KI values in the Table represent an average of the two calculations.

HIV = conditions: cited from earlier work
glucosidases = conditions: cited from earlier work
almond β-glucosidase = assay: Glycosidase inhibition / KI determination, almond β-glucosidase; type: biochemical; conditions: pH 5.0, read-out: KI β-Glu pH 5.0
Procedure: as §1, §2, §3, §4, §5

[1] = target: T2, bovine liver β-galactosidase (Bos taurus, UniProt F1MNT6); assay: Glycosidase inhibition / KI determination, bovine liver β-galactosidase; type: biochemical
T2 construct: from tissue; host or cells: bovine liver
T2 sequence (F1MNT6 1-469): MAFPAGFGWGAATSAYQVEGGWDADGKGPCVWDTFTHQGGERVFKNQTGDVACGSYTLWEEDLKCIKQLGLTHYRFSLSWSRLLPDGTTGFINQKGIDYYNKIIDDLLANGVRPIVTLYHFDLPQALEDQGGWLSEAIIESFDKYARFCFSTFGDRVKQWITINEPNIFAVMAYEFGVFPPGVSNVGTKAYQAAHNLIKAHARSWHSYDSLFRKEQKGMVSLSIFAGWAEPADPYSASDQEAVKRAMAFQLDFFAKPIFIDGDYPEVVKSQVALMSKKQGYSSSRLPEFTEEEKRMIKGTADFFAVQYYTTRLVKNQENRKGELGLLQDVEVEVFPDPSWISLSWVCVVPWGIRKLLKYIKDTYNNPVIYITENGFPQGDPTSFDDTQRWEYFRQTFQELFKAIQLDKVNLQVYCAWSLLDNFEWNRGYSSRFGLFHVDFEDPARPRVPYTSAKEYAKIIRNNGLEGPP
Procedure: as §1, §2, §3, §4
(§6) The velocities (V) of substrate hydrolysis at every combination of inhibitor [I] and substrate [S] concentrations were determined by plotting the absorbance values with respect to time and t]hen calculating the slopes of the lines. Double reciprocal plots of 1/V versus 1/[S] at different [I] were then generated. […] KI values were also calculated from Hanes-Woolf plots of [S]/V vs. [S] by replotttng the [S]/V intercepts versus [I] and ascertaining the [I] intercept. […]

[2] = target: T3, A. niger amyloglucosidase (Aspergillus niger, UniProt P69328); assay: Glycosidase inhibition, A. niger amyloglucosidase; type: biochemical; conditions: pH 5.0, read-out: amylo-Glu pH 5.0 (class)
T3 construct: host or cells: Aspergillus niger
T3 sequence (P69328 25-640): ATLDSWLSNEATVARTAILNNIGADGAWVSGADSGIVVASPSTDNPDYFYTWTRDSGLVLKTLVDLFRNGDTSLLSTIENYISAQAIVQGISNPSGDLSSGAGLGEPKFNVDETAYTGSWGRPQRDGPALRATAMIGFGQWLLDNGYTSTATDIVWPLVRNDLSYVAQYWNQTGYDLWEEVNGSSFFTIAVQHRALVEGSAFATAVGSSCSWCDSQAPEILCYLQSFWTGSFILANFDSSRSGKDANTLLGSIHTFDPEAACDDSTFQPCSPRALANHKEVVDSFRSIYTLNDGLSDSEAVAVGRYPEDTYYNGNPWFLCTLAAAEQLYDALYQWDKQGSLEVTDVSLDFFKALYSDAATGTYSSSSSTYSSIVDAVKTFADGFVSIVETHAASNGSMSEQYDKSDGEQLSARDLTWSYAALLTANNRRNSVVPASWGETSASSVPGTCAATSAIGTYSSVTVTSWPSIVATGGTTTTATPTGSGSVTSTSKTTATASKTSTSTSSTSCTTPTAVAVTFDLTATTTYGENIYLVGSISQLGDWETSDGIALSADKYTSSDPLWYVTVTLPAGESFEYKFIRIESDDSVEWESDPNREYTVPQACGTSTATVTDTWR
Procedure: as §3
(§7) Five substrate solutions (usually […]) and five inhibitor solutions (usually 0-200 μM) were prepared. […] The amound of released p-nitrophenolate was measured spectrophotometrically at 400 nm. […]
as §6, with “lines.” for “lines. Double reciprocal plots of 1/V versus 1/[S] at different [I] were then generated.”

[3] = target: green coffee bean α-galactosidase (Coffea arabica, UniProt Q42656); assay: Glycosidase inhibition, green coffee bean α-galactosidase; type: biochemical; conditions: coffeebean galactosidase
Chain of green coffee bean α-galactosidase (Q42656 16-378): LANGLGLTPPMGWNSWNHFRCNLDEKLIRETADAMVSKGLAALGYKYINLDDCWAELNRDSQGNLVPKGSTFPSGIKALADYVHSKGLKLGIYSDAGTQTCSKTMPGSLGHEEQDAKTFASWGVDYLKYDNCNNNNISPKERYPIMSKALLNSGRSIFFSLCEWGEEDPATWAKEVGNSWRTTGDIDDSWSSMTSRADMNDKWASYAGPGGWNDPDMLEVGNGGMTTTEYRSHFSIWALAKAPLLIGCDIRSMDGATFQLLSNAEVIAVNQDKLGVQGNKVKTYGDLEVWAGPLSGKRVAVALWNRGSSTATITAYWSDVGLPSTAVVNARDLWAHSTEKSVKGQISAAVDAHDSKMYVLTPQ
Procedure: as §1, §2
(§8) An acceptable concentration of enzyme, upon hydrolysis of the corresponding glycoside, should give an absorbance reading between 0.4 and 2.0 at 400 nm. A control assay was first performed to determine whether the enzyme concentration was acceptable. The assays involved addition of working enzyme solution (0.09 mL) and deionized water (0.18 mL) to buffer at the appropriate pH (0.09 mL, phosphate-citrate). […] The absorbance of the resulting solution was measure at 400 nm. Once this control run of the system gave an absorbance within 0.4-2.0, the potential inhibitors were assayed against this working enzyme solution at final inhibitor and substrate concentrations of 1 and 5 mM, respectively. […]
as §7
as §6, with “lines.” for “lines. Double reciprocal plots of 1/V versus 1/[S] at different [I] were then generated.”

yeast α-glucosidase = target: T4, yeast α-glucosidase (Saccharomyces cerevisiae, UniProt P53341); assay: Glycosidase inhibition / KI determination, yeast α-glucosidase; type: biochemical
T4 construct: host or cells: yeast
T4 sequence (P53341 whole entry): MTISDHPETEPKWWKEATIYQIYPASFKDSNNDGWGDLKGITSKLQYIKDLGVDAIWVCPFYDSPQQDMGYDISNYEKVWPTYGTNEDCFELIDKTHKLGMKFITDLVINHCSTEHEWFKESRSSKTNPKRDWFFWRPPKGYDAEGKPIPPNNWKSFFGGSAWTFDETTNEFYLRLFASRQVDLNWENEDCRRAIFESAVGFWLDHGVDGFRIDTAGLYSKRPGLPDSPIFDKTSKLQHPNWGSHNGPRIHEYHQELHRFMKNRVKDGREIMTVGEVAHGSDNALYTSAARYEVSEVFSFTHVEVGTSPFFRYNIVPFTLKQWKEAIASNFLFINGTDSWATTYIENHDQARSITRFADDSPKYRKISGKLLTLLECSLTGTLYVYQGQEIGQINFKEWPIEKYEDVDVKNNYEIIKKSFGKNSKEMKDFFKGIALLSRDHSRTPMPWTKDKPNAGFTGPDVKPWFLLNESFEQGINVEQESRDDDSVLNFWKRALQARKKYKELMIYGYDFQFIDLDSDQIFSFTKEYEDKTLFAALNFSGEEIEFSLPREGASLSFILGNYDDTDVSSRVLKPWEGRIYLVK
Procedure: as §1, §2, §8, §7
as §6, with “lines.” for “lines. Double reciprocal plots of 1/V versus 1/[S] at different [I] were then generated.”

galactosidases = conditions: cited from earlier work
[4] = pH 5.0, read-out: KI α-man pH 5.0
[5] = pH 7.0, read-out: KI β-gal pH 7.0
[6] = pH 7.0, read-out: β-gal pH 7.0 (class)

OC[C@H]1NC[C@@H](O)[C@@H](O)[C@@H]1O [C, 1-deoxymannojirimycin]
mannosidase inhibition (mannosidases): inhibits mannosidases

OC[C@H]1N=C(NO)[C@@H](O)[C@@H](O)[C@@H]1O [Compound 15, D-Mannoamidoxime]
Ki (jackbean α-mannosidase; [4]): 2 ± 0.1 µM

OC[C@H]1NC[C@H](O)[C@@H](O)[C@@H]1O [Compound B, 1-deoxynojirimycin]
effect on infectivity of HIV (HIV): interfere with the infectivity of HIV | glucosidase inhibition (glucosidases): potent glucosidase inhibitors

NNC1=N[C@H](CO)[C@@H](O)[C@H](O)[C@@H]1O [Compound 9, D-Mannoamidrazone]
Ki (almond β-glucosidase): 205 ± 25 µM | Ki (jackbean α-mannosidase; [4]): 0.166 ± 0.013 µM | Ki [1, 5]: 57 ± 2.5 µM

CN(C)C1=N[C@H](CO)[C@@H](O)[C@H](O)[C@H]1O [Compound 2, D-Gluco-N,N-Dimethylamidine]
Ki [2]: > 1000 µM | α-gal pH 6.6 (class) [3]: none | Ki (almond β-glucosidase): 83 µM | α-Glu pH 6.6 (class) (yeast α-glucosidase): none | Ki (jackbean α-mannosidase; pH 5.0, read-out: α-man pH 5.0 (class)): < 100 µM | Ki [1, 6]: < 100 µM

NNC1=N[C@H](CO)[C@@H](O)[C@H](O)[C@H]1O [Compound 8, D-Glucoamidrazone]
Ki (almond β-glucosidase): 8.4 ± 0.9 µM | Ki (jackbean α-mannosidase; [4]): 6.5 ± 3 µM | Ki [1, 5]: 19 µM

OC[C@H]1N=C(NO)[C@H](O)[C@@H](O)[C@@H]1O [Compound 13, D-Glucoamidoxime]
Ki (almond β-glucosidase): 13.8 ± 3 µM | Ki (jackbean α-mannosidase; [4]): 10 ± 2 µM

NC1O[C@H](CO)[C@@H](O)[C@H](O)[C@H]1O (stereo partly drawn) [glucosylamine]
inhibition of α- and β-glucosidases (glucosidases; α- and β-glucosidases): inhibits both α- and β-glucosidases

OC[C@H]1NC(O)[C@H](O)[C@@H](O)[C@H]1O (stereo partly drawn) [D, galactostatin]
galactosidase inhibition (galactosidases): inhibits galactosidases

OC[C@H]1NC(O)[C@H](O)[C@@H](O)[C@@H]1O (stereo partly drawn) [Nojirimycin, nojirimycin, reference compound]
Ki [2]: > 1000 µM | α-gal pH 6.6 (class) [3]: mod-none | Ki (almond β-glucosidase): 380 µM | Ki (yeast α-glucosidase; pH 6.6, read-out: KI α-Glu pH 6.6): 13 µM | α-man pH 5.0 (class) (jackbean α-mannosidase): moderate | Ki [1, 6]: > 1000 µM | glucosidase inhibition (glucosidases): potent glucosidase inhibitors

NC1=N[C@H](CO)[C@@H](O)[C@H](O)[C@H]1O [Compound 1, D-Glucoamidine]
Ki [2]: > 1000 µM | α-gal pH 6.6 (class) [3]: none | Ki (almond β-glucosidase): 8 µM | α-Glu pH 6.6 (class) (yeast α-glucosidase): none | Ki (jackbean α-mannosidase; [4]): 9 µM | Ki [1, 6]: < 100 µM
